Measured values taken from PubChem BioAssay (NCI).
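Exposure lasted 48 hours, with cells grown in 96-well plates and compounds tested at five concentrations. The concentration for 50% growth inhibition is given as GI50. TGI: total growth inhibition.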

Tests used:
Experiment in all cases: inhibition of tumour cell growth, NCI panel, 48 h
PC-3 prostate = test system: PC-3 prostate
HS 578T breast = test system: HS 578T breast
EKVX NSCLC = test system: EKVX NSCLC
SN12C renal = test system: SN12C renal
T-47D breast = test system: T-47D breast
LOX IMVI melanoma = test system: LOX IMVI melanoma
HCT-116 colon = test system: HCT-116 colon
A498 renal = test system: A498 renal
KM12 colon = test system: KM12 colon
MDA-MB-435 = test system: MDA-MB-435
SW-620 colon = test system: SW-620 colon
K-562 leukemia = test system: K-562 leukemia
UO-31 renal = test system: UO-31 renal
NCI/ADR-RES ovarian = test system: NCI/ADR-RES ovarian
SF-268 CNS = test system: SF-268 CNS
HCC-2998 colon = test system: HCC-2998 colon
CCRF-CEM leukemia = test system: CCRF-CEM leukemia
NCI-H522 lung = test system: NCI-H522 lung
MDA-MB-231 breast = test system: MDA-MB-231 breast
UACC-257 melanoma = test system: UACC-257 melanoma
MCF7 breast = test system: MCF7 breast
SK-MEL-28 melanoma = test system: SK-MEL-28 melanoma
OVCAR-5 ovarian = test system: OVCAR-5 ovarian
SF-539 CNS = test system: SF-539 CNS
A549 NSCLC = test system: A549 NSCLC
SK-MEL-2 melanoma = test system: SK-MEL-2 melanoma
SK-MEL-5 melanoma = test system: SK-MEL-5 melanoma
OVCAR-3 ovarian = test system: OVCAR-3 ovarian
SNB-19 CNS = test system: SNB-19 CNS
ACHN renal = test system: ACHN renal
HOP-92 NSCLC = test system: HOP-92 NSCLC
RXF 393 renal = test system: RXF 393 renal
HT29 colon = test system: HT29 colon
SR leukemia = test system: SR leukemia
M14 melanoma = test system: M14 melanoma
RPMI-8226 leukemia = test system: RPMI-8226 leukemia
SNB-75 CNS = test system: SNB-75 CNS
TK-10 renal = test system: TK-10 renal
BT-549 breast = test system: BT-549 breast
OVCAR-4 ovarian = test system: OVCAR-4 ovarian
SK-OV-3 ovarian = test system: SK-OV-3 ovarian
HCT-15 colon = test system: HCT-15 colon
MOLT-4 leukemia = test system: MOLT-4 leukemia
CAKI-1 renal = test system: CAKI-1 renal
COLO 205 colon = test system: COLO 205 colon
NCI-H226 lung = test system: NCI-H226 lung
786-0 renal = test system: 786-0 renal
DU-145 prostate = test system: DU-145 prostate
HOP-62 NSCLC = test system: HOP-62 NSCLC
UACC-62 melanoma = test system: UACC-62 melanoma
NCI-H460 lung = test system: NCI-H460 lung
NCI-H23 lung = test system: NCI-H23 lung
U251 CNS = test system: U251 CNS
HL-60(TB) leukemia = test system: HL-60(TB) leukemia
SF-295 CNS = test system: SF-295 CNS
OVCAR-8 ovarian = test system: OVCAR-8 ovarian
MALME-3M melanoma = test system: MALME-3M melanoma
IGROV1 ovarian = test system: IGROV1 ovarian
MDA-N = test system: MDA-N

SMILES: Cc1nc(-c2nc(-c3ccc(OC(F)(F)F)cc3)no2)nn1Cc1cccc(N2CCC(S(C)(=O)=O)CC2)c1
- GI50 (PC-3 prostate): 3.59 µM
- TGI (PC-3 prostate): 55.2 µM
- GI50 (HS 578T breast): > 36.9 µM
- TGI (HS 578T breast): > 82.1 µM
- GI50 (EKVX NSCLC): 1.6 µM
- TGI (EKVX NSCLC): 48.6 µM
- GI50 (SN12C renal): > 31.1 µM
- TGI (SN12C renal): > 100 µM
- GI50 (T-47D breast): 0.0134 µM
- TGI (T-47D breast): > 100 µM
- GI50 (LOX IMVI melanoma): 0.012 µM
- TGI (LOX IMVI melanoma): > 100 µM
- GI50 (HCT-116 colon): < 0.01 µM
- TGI (HCT-116 colon): > 100 µM
- GI50 (A498 renal): < 0.0198 µM
- TGI (A498 renal): 17.1 µM
- GI50 (KM12 colon): > 52.6 µM
- TGI (KM12 colon): > 100 µM
- GI50 (MDA-MB-435): 2.9 µM
- TGI (MDA-MB-435): > 100 µM
- GI50 (SW-620 colon): > 46.9 µM
- TGI (SW-620 colon): > 100 µM
- GI50 (K-562 leukemia): < 0.01 µM
- TGI (K-562 leukemia): > 100 µM
- GI50 (UO-31 renal): 1.46 µM
- TGI (UO-31 renal): > 100 µM
- GI50 (NCI/ADR-RES ovarian): 0.529 µM
- TGI (NCI/ADR-RES ovarian): 28.6 µM
- GI50 (SF-268 CNS): > 40.9 µM
- TGI (SF-268 CNS): > 100 µM
- GI50 (HCC-2998 colon): > 40.6 µM
- TGI (HCC-2998 colon): > 100 µM
- GI50 (CCRF-CEM leukemia): 7.41 µM
- TGI (CCRF-CEM leukemia): > 100 µM
- GI50 (NCI-H522 lung): > 100 µM
- TGI (NCI-H522 lung): > 100 µM
- GI50 (MDA-MB-231 breast): 17.6 µM
- TGI (MDA-MB-231 breast): > 100 µM
- GI50 (UACC-257 melanoma): 0.286 µM
- TGI (UACC-257 melanoma): > 86.6 µM
- GI50 (MCF7 breast): 0.0136 µM
- TGI (MCF7 breast): 48.6 µM
- GI50 (SK-MEL-28 melanoma): > 24.7 µM
- TGI (SK-MEL-28 melanoma): > 100 µM
- GI50 (OVCAR-5 ovarian): > 65.8 µM
- TGI (OVCAR-5 ovarian): > 100 µM
- GI50 (SF-539 CNS): > 40.4 µM
- TGI (SF-539 CNS): > 100 µM
- GI50 (A549 NSCLC): 4.62 µM
- TGI (A549 NSCLC): > 100 µM
- GI50 (SK-MEL-2 melanoma): > 35.1 µM
- TGI (SK-MEL-2 melanoma): > 86.5 µM
- GI50 (SK-MEL-5 melanoma): < 0.01 µM
- TGI (SK-MEL-5 melanoma): 1.06 µM
- GI50 (OVCAR-3 ovarian): 11.6 µM
- TGI (OVCAR-3 ovarian): > 100 µM
- GI50 (SNB-19 CNS): 8.75 µM
- TGI (SNB-19 CNS): 95.4 µM
- GI50 (ACHN renal): > 26.7 µM
- TGI (ACHN renal): > 65 µM
- GI50 (HOP-92 NSCLC): 28.9 µM
- TGI (HOP-92 NSCLC): > 89 µM
- GI50 (RXF 393 renal): 5.88 µM
- TGI (RXF 393 renal): 44.4 µM
- GI50 (HT29 colon): > 25 µM
- TGI (HT29 colon): > 100 µM
- GI50 (SR leukemia): 0.397 µM
- TGI (SR leukemia): 97.9 µM
- GI50 (M14 melanoma): 5.66 µM
- TGI (M14 melanoma): > 100 µM
- TGI (RPMI-8226 leukemia): > 100 µM
- GI50 (SNB-75 CNS): 5.13 µM
- TGI (SNB-75 CNS): 48.5 µM
- GI50 (TK-10 renal): 4.41 µM
- TGI (TK-10 renal): > 100 µM
- GI50 (BT-549 breast): 1.07 µM
- TGI (BT-549 breast): 38.6 µM
- GI50 (OVCAR-4 ovarian): < 0.0137 µM
- TGI (OVCAR-4 ovarian): > 90.6 µM
- GI50 (SK-OV-3 ovarian): 16.3 µM
- TGI (SK-OV-3 ovarian): 89.8 µM
- GI50 (HCT-15 colon): > 21.7 µM
- TGI (HCT-15 colon): > 100 µM
- GI50 (MOLT-4 leukemia): 3.3 µM
- TGI (MOLT-4 leukemia): > 100 µM
- GI50 (CAKI-1 renal): 3.28 µM
- TGI (CAKI-1 renal): 29.8 µM
- GI50 (COLO 205 colon): 11.1 µM
- TGI (COLO 205 colon): > 100 µM
- GI50 (NCI-H226 lung): 0.931 µM
- TGI (NCI-H226 lung): 41.4 µM
- GI50 (786-0 renal): 18.4 µM
- TGI (786-0 renal): > 100 µM
- GI50 (DU-145 prostate): > 42.8 µM
- TGI (DU-145 prostate): > 100 µM
- GI50 (HOP-62 NSCLC): > 33.1 µM
- TGI (HOP-62 NSCLC): > 100 µM
- GI50 (UACC-62 melanoma): 3.51 µM
- TGI (UACC-62 melanoma): > 100 µM
- GI50 (NCI-H460 lung): 5.95 µM
- TGI (NCI-H460 lung): > 100 µM
- GI50 (NCI-H23 lung): < 0.01 µM
- TGI (NCI-H23 lung): > 100 µM
- GI50 (U251 CNS): > 39.3 µM
- TGI (U251 CNS): > 100 µM
- TGI (HL-60(TB) leukemia): > 49.5 µM
- GI50 (SF-295 CNS): 0.0227 µM
- TGI (SF-295 CNS): > 77 µM
- GI50 (OVCAR-8 ovarian): 3.86 µM
- TGI (OVCAR-8 ovarian): > 100 µM
- GI50 (MALME-3M melanoma): > 34.3 µM
- TGI (MALME-3M melanoma): > 76.8 µM
- GI50 (IGROV1 ovarian): > 26.5 µM
- TGI (IGROV1 ovarian): > 100 µM

SMILES: C/C=C1\CC2C(=O)CCC2C2c3ccccc3OC12 (centres undefined)
- TGI (PC-3 prostate): > 100 µM
- TGI (HS 578T breast): > 100 µM
- TGI (EKVX NSCLC): > 100 µM
- TGI (SN12C renal): 0.821 µM
- TGI (MDA-N): 0.24 µM
- TGI (LOX IMVI melanoma): > 100 µM
- TGI (HCT-116 colon): > 100 µM
- TGI (KM12 colon): > 100 µM
- TGI (MDA-MB-435): > 100 µM
- TGI (SW-620 colon): > 100 µM
- TGI (K-562 leukemia): > 100 µM
- TGI (UO-31 renal): > 100 µM
- TGI (NCI/ADR-RES ovarian): > 100 µM
- TGI (SF-268 CNS): > 100 µM
- TGI (CCRF-CEM leukemia): > 100 µM
- TGI (NCI-H522 lung): > 100 µM
- TGI (MDA-MB-231 breast): > 100 µM
- TGI (UACC-257 melanoma): > 100 µM
- TGI (MCF7 breast): > 100 µM
- TGI (SK-MEL-28 melanoma): > 100 µM
- TGI (OVCAR-5 ovarian): > 100 µM
- TGI (SF-539 CNS): > 100 µM
- TGI (A549 NSCLC): > 100 µM
- TGI (SK-MEL-2 melanoma): > 100 µM
- TGI (SK-MEL-5 melanoma): > 100 µM
- TGI (OVCAR-3 ovarian): > 100 µM
- TGI (SNB-19 CNS): > 100 µM
- TGI (ACHN renal): > 100 µM
- TGI (HOP-92 NSCLC): > 100 µM
- TGI (RXF 393 renal): > 100 µM
- TGI (HT29 colon): > 100 µM
- TGI (SR leukemia): > 100 µM
- TGI (M14 melanoma): > 100 µM
- TGI (RPMI-8226 leukemia): > 100 µM
- TGI (SNB-75 CNS): > 100 µM
- TGI (TK-10 renal): > 100 µM
- TGI (OVCAR-4 ovarian): > 100 µM
- TGI (SK-OV-3 ovarian): > 100 µM
- TGI (HCT-15 colon): > 100 µM
- TGI (MOLT-4 leukemia): > 100 µM
- TGI (CAKI-1 renal): > 100 µM
- TGI (COLO 205 colon): > 100 µM
- TGI (NCI-H226 lung): > 100 µM
- TGI (786-0 renal): > 100 µM
- TGI (DU-145 prostate): 10.7 µM
- TGI (HOP-62 NSCLC): > 100 µM
- TGI (UACC-62 melanoma): > 100 µM
- TGI (NCI-H460 lung): > 100 µM
- TGI (NCI-H23 lung): > 100 µM
- TGI (U251 CNS): > 100 µM
- TGI (HL-60(TB) leukemia): > 100 µM
- TGI (SF-295 CNS): > 100 µM
- TGI (OVCAR-8 ovarian): > 100 µM
- TGI (MALME-3M melanoma): > 100 µM
- TGI (IGROV1 ovarian): > 100 µM
